The record followed here is patent US8466188B2, “Use of spiro-oxindole compounds as therapeutic agents” (Xenon Pharmaceuticals Inc., priority 2006, dated 2013).

Molecules are shown by their SMILES.

In one series the test system is Nav1.4 in CHO-K1 cells. Type of series: cell-based, Chinese hamster.
Series [1] has as its system Nav1.4 and 1.5 in L6 cells. In kind it is cell-based, rat.
For series [2], the system named is Nav1.8 in SK-N-BE2C cells. In kind it is cell-based, human.
A further series addresses Nav1.2 in PC12 cells (Rattus norvegicus, UniProt P04775).
Another series concerns sodium channel. As to the kind of experiment: Guanidine influx assay (14C-guanidine radiotracer flux) in a known cell line that expresses a sodium channel. Type of series: cell-based, human or rat. An excerpt:
This example describes an in vitro assay for testing and profiling test agents against human or rat sodium channels stably expressed in cells of either an endogenous or recombinant origin.
The guanidine influx assay is a radiotracer flux assay used to determine ion flux activity of sodium channels in a high-throughput microplate-based format. The assay uses ^14C-guanidine hydrochloride in combination with various known sodium channel modulators, to assay the potency of test agents. Potency is determined by an IC50 calculation. Selectivity is determined by comparing potency of the compound for the channel of interest to its potency against other sodium channels (also called ‘selectivity profiling’).
Each of the test agents is assayed against cells that express the sodium channel of interest. Voltage gated sodium channels are either TTX sensitive or insensitive. This property is useful when evaluating the activities of a channel of interest when it resides in a mixed population with other sodium channels. The following Table 1 lists certain cell lines which are useful in screening for a certain sodium channel activity in the presence or absence of TTX.
It is also possible to employ recombinant cells expressing these sodium channels.
Cells expressing the channel of interest are grown according to the supplier or in the case of a recombinant cell in the presence of selective growth media such as G418 (Gibco/Invitrogen). The cells are disassociated from the culture dishes with an enzymatic solution (1×) Trypsin/EDTA (Gibco/Invitrogen) and analyzed for density and viability using haemocytometer (Neubauer). Disassociated cells are washed and resuspended in their culture media then plated into Scintiplates (Beckman Coulter Inc.) (approximately 100,000 cells/well) and incubated at 37° C./5% CO2 for 20-24 hours. After an extensive wash with Low sodium HEPES-buffered saline solution (LNHBSS) (150 mM Choline Chloride, […] (Sigma), 1 mM Calcium Chloride, 5 mM Potassium Chloride, 1 mM Magnesium Chloride, 10 mM Glucose) agents diluted with LNHBSS are added to each well. (Varying concentrations of test agent may be used). The activation/radiolabel mixture contains aconitine (Sigma), and ^14C-guanidine hydrochloride (ARC).
After loading the cells with test agent and activation/radiolabel mixture, the Scintiplates are incubated at ambient temperature. Following the incubation, the Scintplates are extensively washed with LNHBSS supplemented with guanidine (Sigma). The Scintiplates are dried and then counted using a Wallac MicroBeta TriLux (Perkin-Elmer Life Sciences). The ability of the test agent to block sodium channel activity is determined by comparing the amount of ^14C-guanidine present inside the cells expressing the different sodium channels.
IC50 value of a test agent for a specific sodium channel may be determined using the above general method. […] The IC50 curve is calculated using the 4 Parameter Logistic Model or Sigmoidal Dose-Response Model formula (fit=(A+((B−A)/(1+((C/x)^D)))).
The fold selectivity, factor of selectivity or multiple of selectivity, is calculated by dividing the IC50 value of the test sodium channel by the reference sodium channel, for example, Nav1.5.
The Example numbers provided in Table 2 correspond to the Example numbers herein: […]

Sequence of Nav1.2 in PC12 cells (P04775 whole entry, looked up): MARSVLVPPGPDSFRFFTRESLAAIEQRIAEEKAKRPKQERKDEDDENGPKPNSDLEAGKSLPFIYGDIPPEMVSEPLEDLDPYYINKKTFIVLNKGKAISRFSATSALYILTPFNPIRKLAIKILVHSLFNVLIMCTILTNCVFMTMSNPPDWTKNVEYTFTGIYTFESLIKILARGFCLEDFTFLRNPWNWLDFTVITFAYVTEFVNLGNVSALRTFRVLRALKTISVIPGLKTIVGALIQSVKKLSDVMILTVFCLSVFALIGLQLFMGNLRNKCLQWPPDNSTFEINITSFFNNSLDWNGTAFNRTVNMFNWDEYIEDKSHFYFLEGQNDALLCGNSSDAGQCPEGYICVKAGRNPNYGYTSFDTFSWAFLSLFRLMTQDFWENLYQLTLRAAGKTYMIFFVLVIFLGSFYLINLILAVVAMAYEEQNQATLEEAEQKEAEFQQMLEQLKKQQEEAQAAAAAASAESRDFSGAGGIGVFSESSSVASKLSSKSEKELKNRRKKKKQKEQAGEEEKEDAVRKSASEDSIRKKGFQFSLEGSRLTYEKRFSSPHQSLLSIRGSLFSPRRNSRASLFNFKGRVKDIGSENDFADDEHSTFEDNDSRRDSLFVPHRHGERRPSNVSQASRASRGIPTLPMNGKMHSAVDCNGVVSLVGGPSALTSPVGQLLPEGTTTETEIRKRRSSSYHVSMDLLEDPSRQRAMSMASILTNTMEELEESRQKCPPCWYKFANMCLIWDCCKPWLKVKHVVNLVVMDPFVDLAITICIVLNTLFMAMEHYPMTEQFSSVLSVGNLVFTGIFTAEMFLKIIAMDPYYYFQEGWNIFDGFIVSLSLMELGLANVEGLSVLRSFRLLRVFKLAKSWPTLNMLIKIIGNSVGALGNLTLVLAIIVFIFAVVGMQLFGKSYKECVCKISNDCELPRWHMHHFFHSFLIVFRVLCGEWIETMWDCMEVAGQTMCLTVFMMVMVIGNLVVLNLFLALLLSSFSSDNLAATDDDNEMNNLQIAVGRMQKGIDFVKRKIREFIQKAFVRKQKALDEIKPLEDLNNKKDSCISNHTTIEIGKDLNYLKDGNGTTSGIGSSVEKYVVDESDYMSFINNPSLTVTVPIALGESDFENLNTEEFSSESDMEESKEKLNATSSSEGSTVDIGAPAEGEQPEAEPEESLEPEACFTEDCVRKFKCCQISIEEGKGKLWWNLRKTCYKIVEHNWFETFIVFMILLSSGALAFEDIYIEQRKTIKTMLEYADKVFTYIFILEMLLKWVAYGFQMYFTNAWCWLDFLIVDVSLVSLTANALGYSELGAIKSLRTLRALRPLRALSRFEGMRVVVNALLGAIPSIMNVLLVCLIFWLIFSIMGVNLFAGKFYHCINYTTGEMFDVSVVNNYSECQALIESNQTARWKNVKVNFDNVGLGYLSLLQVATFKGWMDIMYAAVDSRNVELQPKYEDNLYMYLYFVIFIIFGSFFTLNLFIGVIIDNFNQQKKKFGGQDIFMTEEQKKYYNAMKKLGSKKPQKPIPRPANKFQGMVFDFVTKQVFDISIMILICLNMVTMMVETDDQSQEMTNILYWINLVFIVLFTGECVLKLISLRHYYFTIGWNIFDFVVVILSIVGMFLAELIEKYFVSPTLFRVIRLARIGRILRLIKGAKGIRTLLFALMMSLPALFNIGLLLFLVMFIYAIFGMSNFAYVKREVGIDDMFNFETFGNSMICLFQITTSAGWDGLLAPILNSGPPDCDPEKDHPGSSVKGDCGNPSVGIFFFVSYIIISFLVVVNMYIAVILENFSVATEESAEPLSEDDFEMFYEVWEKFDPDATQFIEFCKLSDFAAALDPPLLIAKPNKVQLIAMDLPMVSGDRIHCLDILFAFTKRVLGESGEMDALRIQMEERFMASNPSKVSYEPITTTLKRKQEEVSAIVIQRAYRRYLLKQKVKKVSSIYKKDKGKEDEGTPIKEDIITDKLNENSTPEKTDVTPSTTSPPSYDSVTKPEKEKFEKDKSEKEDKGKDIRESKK

With `NC1=N[C@H](O)[C@H]2[C@H]3O[C@]4(O)O[C@@H]([C@@H](O)[C@@]2(N1)[C@@H]4O)[C@]3(O)CO` [TTX], the “block of [14C] Guanidine influx by TTX” value is “Guanidine influx was completely” in the series on Nav1.4 in CHO-K1 cells, “partially blocked by TTX (Nav1.5” in series [1], “TTX partially blocked influx” in series [2] and “Guanidine influx was completely” at Nav1.2 in PC12 cells.
Molecule `O=C(NCCN1C(=O)C2(COc3cc4c(cc32)OCO4)c2ccccc21)c1ccccc1OC(F)(F)F` (stereo not shown) [Example 59, N-[2-(2′-oxospiro[furo[2,3-f][1,3]benzodioxole-7,3′-indol]-1′(2′H)-yl)ethyl]-2-(trifluoromethoxy)benzamide] showed a melting point of 183 to 184 °C. The IC50 in the series on sodium channel was in the range of 100 to 1000 nM.
The corresponding values for `O=C1N(CCC2CC2)c2ccccc2C12COc1cc3c(cc12)OCO3` (stereo not shown) [Example 1, 1′-(2-cyclopropylethyl)spiro[furo[2,3-f][1,3]benzodioxole-7,3′-indol]-2′(1′H)-one] are 125 to 127 °C and 1 to 10 nM.
The matching figures for `CCCCCN1C(=O)C2(COc3cc(-c4ccncc4)ccc32)c2ccccc21` (stereo not shown) [Example 38, 1′-pentyl-6-pyridin-4-ylspiro[1-benzofuran-3,3′-indol]-2′(1′H)-one]: 107 to 110 °C and 100 to 1000 nM.
The corresponding values for `CC(C)(C)OC(=O)N1CCCC(c2ccc3c(c2)C2(CO3)C(=O)Nc3ccccc32)C1` (stereo not shown) [Example 55, tert-butyl 3-(2′-oxo-1′,2′-dihydrospiro[1-benzofuran-3,3′-indol]-5-yl)piperidine-1-carboxylate] are 120 to 123 °C and > 1000 nM.
For `O=C(CN1C(=O)C2(COc3ccc(-c4cccnc4)cc32)c2ccccc21)Nc1ccccc1F` (stereo not shown) [Example 52, N-(2-fluorophenyl)-2-(2′-oxo-5-pyridin-3-ylspiro[1-benzofuran-3,3′-indol]-1′(2′H)-yl)acetamide], the melting point lay in the range of 98 to 100 °C. The IC50 in the series on sodium channel was in the range of 100 to 1000 nM.
The corresponding values for `CCCCCN1C(=O)C2(COc3ccc(-c4cncnc4)cc32)c2ccccc21` (stereo not shown) [Example 49, 1′-pentyl-5-pyrimidin-5-ylspiro[1-benzofuran-3,3′-indol]-2′(1′H)-one] are 115 to 117 °C and 100 to 1000 nM.
The matching figures for `CCCCCN1C(=O)C2(OCc3cc4c(cc32)OCO4)c2ccccc21` (stereo not shown) [Example 20, 1′-pentyl-7H-spiro[furo[3,4-f][1,3]benzodioxole-5,3′-indol]-2′(1′H)-one]: 113 to 115 °C and 1 to 10 nM.
For the molecule `CCCCCN1C(=O)C2(COc3cc4c(cc32)OCO4)c2c(C#N)cccc21` (stereo not shown) [Example 30, 2′-oxo-1′-pentyl-1′,2′-dihydrospiro[furo[2,3-f][1,3]benzodioxole-7,3′-indole]-4′-carbonitrile], the melting point lay within 128 to 129 °C. Further, in the series with sodium channel, the IC50 was 10 to 100 nM.
The corresponding values for `O=C1N(C(c2ccccc2)c2ccccc2)c2ccccc2C12COc1ccc(-c3cccnc3)cc12` (stereo not shown) [Example 54, 1′-(diphenylmethyl)-5-pyridin-3-ylspiro[1-benzofuran-3,3′-indol]-2′(1′H)-one] are 204 to 207 °C and > 1000 nM.
